Laboratory results as given in patent US20260042755A1, “GPR6 INVERSE AGONISTS” (MapLight Therapeutics, Inc., priority 2022, published 2026).

Assays:
GPR6 = molecular target: T1, GPR6 (Homo sapiens, UniProt P46095); assay: GPR6 antagonist functional cAMP assay (LANCE Ultra cAMP TR-FRET, CHO cells stably expressing GPR6); assay type: cell-based
T1 construct: expressed in transfected cells; host or cells: CHO cells
Procedure, shortened: (§1)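 Compounds, at 0.1% final DMSO, acted on the cells for 45 minutes at 37 °C in the presence of the phosphodiesterase inhibitor Ro 20-1724 (150 μM). After lysis and detection, plates were shaken 1 h at room temperature and emission at 665 nm was recorded. Normalized data gave IC50 values.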

GPR3 = molecular target: T2, GPR3 (Homo sapiens, UniProt P46089); assay: GPR3 antagonist functional cAMP assay (LANCE Ultra cAMP TR-FRET, CHO cells stably expressing GPR3); assay type: cell-based
T2 construct: expressed in transfected cells; host or cells: CHO cells
Procedure, shortened: as §1

[1] = CHO cells stably expressing GPR6, cAMP assay (Example 24)
[2] = CHO cells stably expressing GPR3, cAMP assay (Example 24)
[3] = procedure as described in Example 24
[4] = CHO cells stably expressing GPR6, cAMP assay
[5] = CHO cells stably expressing GPR3, cAMP assay

T2 sequence (P46089 whole entry, species assumed): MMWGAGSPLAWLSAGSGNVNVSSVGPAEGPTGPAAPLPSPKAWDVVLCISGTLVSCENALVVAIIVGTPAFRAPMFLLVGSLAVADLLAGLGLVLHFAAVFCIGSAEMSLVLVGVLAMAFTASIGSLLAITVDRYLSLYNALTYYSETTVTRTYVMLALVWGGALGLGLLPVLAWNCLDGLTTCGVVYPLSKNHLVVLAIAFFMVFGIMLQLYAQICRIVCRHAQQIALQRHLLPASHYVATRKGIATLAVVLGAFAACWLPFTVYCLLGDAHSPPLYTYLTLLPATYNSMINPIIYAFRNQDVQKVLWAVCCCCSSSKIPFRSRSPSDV
T1 sequence (P46095 whole entry): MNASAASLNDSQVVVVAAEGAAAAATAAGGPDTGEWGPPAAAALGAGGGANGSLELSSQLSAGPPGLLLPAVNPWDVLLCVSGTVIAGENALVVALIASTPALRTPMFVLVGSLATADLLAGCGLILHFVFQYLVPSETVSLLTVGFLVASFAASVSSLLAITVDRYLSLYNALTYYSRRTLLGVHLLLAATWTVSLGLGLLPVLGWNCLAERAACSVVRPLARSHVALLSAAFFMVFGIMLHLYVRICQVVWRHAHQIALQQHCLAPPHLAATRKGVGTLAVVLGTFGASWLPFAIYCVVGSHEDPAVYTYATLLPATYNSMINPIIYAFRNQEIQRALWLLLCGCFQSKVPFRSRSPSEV

`COCCNc1cc2nc(N3CCC(Oc4ccc(F)cc4F)CC3)c(-c3cnn(C)c3)nc2cn1` [Compound 380, 2-[4-(2,4-difluorophenoxy)piperidin-1-yl]-N-(2-methoxyethyl)-3-(1-methyl-1H-pyrazol-4-yl)pyrido[3,4-b]pyrazin-7-amine] showed an IC50 (GPR6; [1]) of 100 to 1000 nM and an IC50 (GPR3; [2]) of 1000 to 30000 nM.

Work on `CC(=O)N1CCc2nc(N3CCC(Oc4ccc(F)cc4F)CC3)c(-c3cnsc3)nc2C1` [Compound 8, 1-{2-[4-(2,4-difluorophenoxy)piperidin-1-yl]-3-(1,2-thiazol-4-yl)-5H,6H,7H,8H-pyrido[3,4-b]pyrazin-6-yl}ethan-1-one] yielded an IC50 (GPR6; [3]) of 100 to 1000 nM and an IC50 (GPR3; [3]) of 1000 to 30000 nM.

`CCn1cc(-c2nc3cnc(C(C)(O)C(C)(C)O)cc3nc2N2CCC(Oc3ccc(F)cc3F)CC2)cn1` (centres unmarked) [Compound 631, 2-{2-[4-(2,4-difluorophenoxy)-1-piperidyl]-3-(1-ethyl-4-pyrazolyl)-1,4,6-triaza-7-naphthyl}-3-methyl-2,3-butanediol] gave an IC50 (GPR6; procedure of Example 24) of 100 to 1000 nM and an IC50 (GPR3; procedure of Example 24) of 1000 to 30000 nM.

For `CC(=O)N1CCc2nc(N3CCC(Oc4ccc(F)cc4F)CC3)c(-c3cnn([C@H](C)C#N)c3)nc2C1` (single isomer, unassigned) [Compound 272], the IC50 (GPR6; procedure of Example 24) was 100 to 1000 nM and the IC50 (GPR3; procedure of Example 24) was 1000 to 30000 nM.

`O=S(=O)(C1COC1)N1CCc2nc(N3CCC(Oc4ccc(F)cc4F)CC3)c(-c3cnn(C4CCCCO4)c3)nc2C1` (centres unmarked) [Compound 151, 4-(2,4-difluorophenoxy)-1-{3-[1-(oxan-2-yl)-1H-pyrazol-4-yl]-6-(oxetane-3-sulfonyl)-5H,6H,7H,8H-pyrido[3,4-b]pyrazin-2-yl}piperidine] was tested, and the IC50 (GPR6; [1]) was 1000 to 30000 nM and the IC50 (GPR3; [2]) was 1000 to 30000 nM.

With `COC(C)(C)C(=O)N1CCc2nc(N3CCC(Oc4ccc(F)cc4F)CC3)c(-c3cnn(C4CCCCO4)c3)nc2C1` (centres unmarked) [Compound 173, 1-{2-[4-(2,4-difluorophenoxy)piperidin-1-yl]-3-[1-(oxan-2-yl)-1H-pyrazol-4-yl]-5H,6H,7H,8H-pyrido[3,4-b]pyrazin-6-yl}-2-methoxy-2-methylpropan-1-one] the IC50 (GPR6; [1]) was 1000 to 30000 nM and the IC50 (GPR3; [2]) was 1000 to 30000 nM.

`CC(=O)N1CCc2nc(N3CCN(Cc4ccc(=O)n(C)c4)CC3)c(-c3cnn(C)c3)nc2C1` [Compound 535, 5-({4-[6-acetyl-3-(1-methyl-4-pyrazolyl)-5,6,7,8-tetrahydro-1,4,6-triaza-2-naphthyl]-1-piperazinyl}methyl)-1-methyl-2(1H)-pyridinone] was tested, and the IC50 (GPR6; [4]) was ≥ 30000 nM and the IC50 (GPR3; [5]) was ≥ 30000 nM.

`CC(=O)N1CCc2nc(N3CCC(Oc4ccccc4F)CC3)c(-c3cnn(C)c3)nc2C1` [Compound 420, 1-{2-[4-(2-fluorophenoxy)piperidin-1-yl]-3-(1-methyl-1H-pyrazol-4-yl)-5H,6H,7H,8H-pyrido[3,4-b]pyrazin-6-yl}ethan-1-one] was tested, and the IC50 (GPR6; [1]) was 100 to 1000 nM and the IC50 (GPR3; [2]) was 1000 to 30000 nM.

`Cn1cc(-c2nc3cnc(C4(O)COCC4O)cc3nc2N2CCC(Oc3ccc(F)cc3F)CC2)cn1` (centres unmarked) [Compound 412, 3-{2-[4-(2,4-difluorophenoxy)piperidin-1-yl]-3-(1-methyl-1H-pyrazol-4-yl)pyrido[3,4-b]pyrazin-7-yl}oxolane-3,4-diol] showed an IC50 (GPR6; [1]) of 1000 to 30000 nM and an IC50 (GPR3; [2]) of 1000 to 30000 nM.

For `CC(=O)N1CCc2nc(N3CCC(Oc4ccc(F)cc4F)CC3)c(-c3nccs3)nc2C1` [Compound 75, 1-{2-[4-(2,4-difluorophenoxy)piperidin-1-yl]-3-(1,3-thiazol-2-yl)-5H,6H,7H,8H-pyrido[3,4-b]pyrazin-6-yl}ethan-1-one], the IC50 (GPR6; [1]) was 1000 to 30000 nM and the IC50 (GPR3; [2]) was 1000 to 30000 nM.

In the case of `Cn1cc(-c2nc3cc([C@H](O)C(C)(C)O)ncc3nc2N2CCC(=Cc3ccc(F)cc3F)CC2)cn1` (single isomer, unassigned) [Compound 764], the IC50 (GPR6; procedure of Example 24) is reported as < 100 nM and the IC50 (GPR3; procedure of Example 24) is reported as 100 to 1000 nM.

Work on `CC(=O)N1CCc2nc(N3CCC(Oc4ccc(F)cc4F)CC3)c(-c3cccc(Cl)n3)nc2C1` [Compound 137, 1-(3-(6-chloropyridin-2-yl)-2-(4-(2,4-difluorophenoxy)piperidin-1-yl)-7,8-dihydropyrido[3,4-b]pyrazin-6(5H)-yl)ethanone] yielded an IC50 (GPR6; [1]) of 100 to 1000 nM and an IC50 (GPR3; [2]) of 1000 to 30000 nM.

For `COc1cncc(-c2nc3c(nc2N2CCC(Oc4ccc(F)cc4F)CC2)CCN(C(C)=O)C3)n1` [Compound 87, 1-{2-[4-(2,4-difluorophenoxy)piperidin-1-yl]-3-(6-methoxypyrazin-2-yl)-5H,6H,7H,8H-pyrido[3,4-b]pyrazin-6-yl}ethan-1-one], the IC50 (GPR6; [1]) was 100 to 1000 nM and the IC50 (GPR3; [2]) was 1000 to 30000 nM.

`O=C(C1COC1)N1CCc2nc(N3CCC(Oc4ccc(F)cc4F)CC3)c(-c3cnn(C4CCCCO4)c3)nc2C1` (centres unmarked) [Compound 172, 4-(2,4-difluorophenoxy)-1-{3-[1-(oxan-2-yl)-1H-pyrazol-4-yl]-6-(oxetane-3-carbonyl)-5H,6H,7H,8H-pyrido[3,4-b]pyrazin-2-yl}piperidine] was tested, and the IC50 (GPR6; [1]) was 100 to 1000 nM and the IC50 (GPR3; [2]) was 1000 to 30000 nM.

`CC(=O)N1CCc2nc(N3CCC(Oc4ccc(F)cc4F)CC3)c(C3CCC(F)(F)CC3)nc2C1` [Compound 217, 1-[3-(4,4-difluorocyclohexyl)-2-[4-(2,4-difluorophenoxy)piperidin-1-yl]-5H,6H,7H,8H-pyrido[3,4-b]pyrazin-6-yl]ethan-1-one] showed an IC50 (GPR6; [1]) of 1000 to 30000 nM and an IC50 (GPR3; [2]) of 1000 to 30000 nM.

For `CC(=O)N1CCc2nc(N3CCC(Oc4ccc(F)cc4F)CC3)c(-c3ccncn3)nc2C1` [Compound 13, 1-{2-[4-(2,4-difluorophenoxy)piperidin-1-yl]-3-(pyrimidin-4-yl)-5H,6H,7H,8H-pyrido[3,4-b]pyrazin-6-yl}ethan-1-one], the IC50 (GPR6; [3]) was 1000 to 30000 nM and the IC50 (GPR3; [3]) was 100 to 1000 nM.

For `COc1ccc(OC2CCN(c3nc4c(nc3-c3cnn(C)c3)CN(C(C)=O)CC4)CC2)cn1` [Compound 498, 1-{2-[4-(6-methoxy-3-pyridyloxy)-1-piperidyl]-3-(1-methyl-4-pyrazolyl)-5,6,7,8-tetrahydro-1,4,6-triaza-6-naphthyl}-1-ethanone], the IC50 (GPR6; [4]) was 1000 to 30000 nM and the IC50 (GPR3; [5]) was 1000 to 30000 nM.

`CC(C)n1cc(-c2nc3cnc(C(O)C(C)(C)O)cc3nc2N2CCN(Cc3ccc(F)cc3F)CC2)cn1` (centres unmarked) [Compound 298, 1-(2-{4-[(2,4-difluorophenyl)methyl]piperazin-1-yl}-3-[1-(propan-2-yl)-1H-pyrazol-4-yl]pyrido[3,4-b]pyrazin-7-yl)-2-methylpropane-1,2-diol] showed an IC50 (GPR6; procedure of Example 24) of 100 to 1000 nM and an IC50 (GPR3; procedure of Example 24) of 1000 to 30000 nM.

In the case of `Cn1cc(-c2nc3cc([C@](C)(O)CO)ncc3nc2N2CCC(Oc3ccc(F)cc3F)CC2)cn1` (single isomer, unassigned) [Compound 691], the IC50 (GPR6; procedure of Example 24) is reported as 100 to 1000 nM and the IC50 (GPR3; procedure of Example 24) is reported as 1000 to 30000 nM.

Molecule `CC(=O)N1CCc2nc(N3CCC(Oc4ccc(F)cc4F)CC3)c(-c3cnn(-c4ccccc4)c3)nc2C1` [Compound 76, 1-{2-[4-(2,4-difluorophenoxy)piperidin-1-yl]-3-(1-phenyl-1H-pyrazol-4-yl)-5H,6H,7H,8H-pyrido[3,4-b]pyrazin-6-yl}ethan-1-one] has an IC50 (GPR6; [1]) of 100 to 1000 nM and an IC50 (GPR3; [2]) of 1000 to 30000 nM.

`CC(=O)N1CCc2nc(N3CCC(Oc4ccc(F)cc4F)CC3)c(-c3cn[nH]c3F)nc2C1` [Compound 135, 1-(2-(4-(2,4-difluorophenoxy)piperidin-1-yl)-3-(5-fluoro-1H-pyrazol-4-yl)-7,8-dihydropyrido[3,4-b]pyrazin-6(5H)-yl)ethanone] showed an IC50 (GPR6; [1]) of 100 to 1000 nM and an IC50 (GPR3; [2]) of 1000 to 30000 nM.

`CC(=O)N1CCc2nc(N3CCC(Oc4ccc(F)cc4F)CC3)c(-c3cnn(CCO)c3)nc2C1` [Compound 88, 1-{2-[4-(2,4-difluorophenoxy)piperidin-1-yl]-3-[1-(2-hydroxyethyl)-1H-pyrazol-4-yl]-5H,6H,7H,8H-pyrido[3,4-b]pyrazin-6-yl}ethan-1-one] showed an IC50 (GPR6; [1]) of 1000 to 30000 nM and an IC50 (GPR3; [2]) of 1000 to 30000 nM.

For `CC(=O)N1CCc2nc(N3CCC(Oc4ccc(F)cc4F)CC3)c(-c3cnn(CCN(C)C)c3)nc2C1` [Compound 138, 1-{2-[4-(2,4-difluorophenoxy)piperidin-1-yl]-3-{1-[2-(dimethylamino)ethyl]-1H-pyrazol-4-yl}-5H,6H,7H,8H-pyrido[3,4-b]pyrazin-6-yl}ethan-1-one], the IC50 (GPR6; [1]) was 1000 to 30000 nM and the IC50 (GPR3; [2]) was 1000 to 30000 nM.

Molecule `CC(=O)N1CCc2nc(N3CCC(Oc4ccc(F)cc4F)CC3)c(-c3cccc(N(C)C)n3)nc2C1` [Compound 48, 1-{2-[4-(2,4-difluorophenoxy)piperidin-1-yl]-3-[6-(dimethylamino)pyridin-2-yl]-5H,6H,7H,8H-pyrido[3,4-b]pyrazin-6-yl}ethan-1-one] has an IC50 (GPR6; [3]) of 1000 to 30000 nM and an IC50 (GPR3; [3]) of 1000 to 30000 nM.

In the case of `CC(=O)N1CCc2nc(N3CCC(Oc4ccc(F)cc4F)CC3)c(-c3c(C)nn(C4CCCCO4)c3C)nc2C1` (centres unmarked) [Compound 47, 1-{2-[4-(2,4-difluorophenoxy)piperidin-1-yl]-3-[3,5-dimethyl-1-(oxan-2-yl)-1H-pyrazol-4-yl]-5H,6H,7H,8H-pyrido[3,4-b]pyrazin-6-yl}ethan-1-one], the IC50 (GPR6; [3]) is reported as 1000 to 30000 nM and the IC50 (GPR3; [3]) is reported as 1000 to 30000 nM.

With `Fc1ccc(OC2CC3(C2)CN(c2nc4ccncc4nc2-c2cn[nH]c2)C3)c(F)c1` [Compound 26, 2-(6-(2,4-difluorophenoxy)-2-azaspiro[3.3]heptan-2-yl)-3-(1H-pyrazol-4-yl)pyrido[3,4-b]pyrazine] the IC50 (GPR6; [3]) was 1000 to 30000 nM and the IC50 (GPR3; [3]) was 100 to 1000 nM.

With `CCn1cc(-c2nc3c(nc2N2CCC(Oc4ccc(F)cc4F)CC2)CCN(S(C)(=O)=O)C3)cn1` [Compound 269, 4-(2,4-difluorophenoxy)-1-[3-(1-ethyl-1H-pyrazol-4-yl)-6-methanesulfonyl-5H,6H,7H,8H-pyrido[3,4-b]pyrazin-2-yl]piperidine] the IC50 (GPR6; procedure of Example 24) was < 100 nM and the IC50 (GPR3; procedure of Example 24) was 1000 to 30000 nM.

With `Fc1ccc(OC2CC=C(c3nc4cnccc4nc3-c3ncco3)CC2)c(F)c1` (centres unmarked) [Compound 304, 2-{3-[4-(2,4-difluorophenoxy)cyclohex-1-en-1-yl]pyrido[3,4-b]pyrazin-2-yl}-1,3-oxazole] the IC50 (GPR6; procedure of Example 24) was 1000 to 30000 nM and the IC50 (GPR3; procedure of Example 24) was ≥ 30000 nM.
